Reference: patent US20250099548A1, “PHARMACEUTICAL COMPOSITION FOR PREVENTING OR TREATING DEGENERATIVE BRAIN DISEASES, CONTAINING GLUCAGON-LIKE PEPTIDE-1 AND INTERLEUKIN-1 RECEPTOR ANTAGONIST” (GI INNOVATION, INC., priority 2022, published 2025)

Key:
Tg-APP/PS1 mice [1] = test: Novel object recognition test; type: in vivo, mouse; settings: Example 1, 1.2 mg/kg intraperitoneal, 4 times for 2 weeks from 6.5 months of age
Procedure: The test substance was prepared by diluting GI210B1 obtained in Preparation Example 1 in saline, and it was intraperitoneally administered to 6.5-month-old Tg-APP/PS1 mice at a concentration of 1.2 mg/kg a total of 4 times for 2 weeks (FIG. 10).
In the Tg-APP/PS1 mice intraperitoneally administered with GI210B1 at 6.5 months of age in Example 1.1 above, behavioral characteristics of cognitive function were evaluated at 7.5 to 8.0 months of age. In order to evaluate the behavioral characteristics of cognitive function, a novel object recognition test (NOR test), a passive avoidance test, and a water maze test were performed. At that time, the three experiments for behavioral evaluation were performed according to a method known in the art.
All behavior evaluations were recorded with a computerized video-tracking system (SMART; Panlab S. I., Barcelona, Spain) and a webcam recording system (HD Webcam C210, Logitech, Newark, CA, USA). At that time, the background sound in the test room was set to 65 dB of white noise, and all behavioral tests were performed during the photoperiod (9 a.m. to 3 p.m.).
Specifically, the mice prepared in Example 1.1 above were repeatedly exposed to two objects of the same shape twice at intervals of 10 minutes in an open field (familiarization). […] In addition, two hours after the habituation of the mice was completed, the mice were exposed to a novel object and an old object, and then the time taken for the mouse to recognize each object was measured [2-hour-NOR (novel object recognition) experiment]. Thereafter, the mice returned to their home cage, and then the location of one of the just-exposed objects was moved, and then object distinguishment and recognition time were measured [2-hour-NLR (novel position recognition) experiment]. Thereafter, 24 hours after the habituation of the mice was completed, the mice were exposed to another object and an old object, and then the time taken for the mouse to approach each object was measured (24-hour-NOR experiment). […]

Tg-APP/PS1 mice [2] = test: DCX immunochemical staining of hippocampal DG region; type: in vivo, mouse; settings: Example 1; GI210B1 1.2 mg/kg intraperitoneal, 4 times for 2 weeks
Excerpt: DCX (doublecortin) is continuously expressed during the 2-3 weeks during which immature neurons mature, and is expressed in […]. For this reason, DCX is used as a marker of neurogenesis, indicating the degree of neuronal differentiation and after the metaphase of newly generated neurons.
In order to confirm the effect of GI210B1 on the decreased neurogenesis in the DG (dentate gyrus) region of the hippocampus of Tg mice, the Tg-APP/PS1 mice administered with GI210B1 (Tg+GI210B1), the wild type mice (WT) as a normal group, and the Tg-APP/PS1 mice (Tg or Tg+Veh) as a control group were sacrificed, and then the brain tissue was extracted, and the DG region of the hippocampus was stained with DCX.
In the same manner as in Example 1.4.2 above, the mice from each group were sacrificed, and then the brain tissue was extracted, and the DG region of the hippocampus was stained with DCX.

Tg-APP/PS1 mice [3] = test: MAP-2 immunofluorescence staining of hippocampal CA1 region; type: in vivo, mouse; settings: 4 times for 2 weeks
Excerpt: Long-term memory is regulated at synapses between axons of neurons and dendrites of target neurons, and the microstructure of neurons is greatly influenced by the state of neuron health. Changes in the microstructure of dendrites of neurons are important for maintaining memory. The microstructure of the dendrites of such neurons can be observed as an image by staining with an anti-MAP-2 antibody (GeneTex, CatNo. GTX133109) located in the dendrites.
Therefore, in order to determine the mechanism of action of cognitive function improvement and memory recovery effects of GI210B1, the Tg-APP/PS1 mice administered with GI210B1 (Tg+GI210B1), the wild type mice (WT) as a normal group, and the Tg-APP/PS1 mice (Tg or Tg+Veh) as a control group were sacrificed, and then the brain tissue was extracted, and the microstructural status of the dendrites (dendritic process) of the hippocampus was analyzed.
In the same manner as in Example 1.4.1 above, the mice from each group were sacrificed, and then the brain tissue was extracted, and the microstructural status of the dendrites of the hippocampus was analyzed.

Tg-APP/PS1 mice [4] = test: Ki-67 staining of hippocampal DG region; type: in vivo, mouse; settings: Example 1; GI210B1 1.2 mg/kg intraperitoneal, 4 times for 2 weeks
Excerpt: Ki-67 is a protein expressed in the nucleus during cell division.
In order to confirm the effect of GI210B1 on the decreased neurogenesis in the DG region of the hippocampus of Tg mice, the Tg-APP/PS1 mice administered with GI210B1 (Tg+GI210B1), the wild type mice (WT) as a normal group, and the Tg-APP/PS1 mice (Tg) as a control group were sacrificed, and then the brain was extracted, and the DG region of the hippocampus was fluorescently stained with Ki-67.

[5] = target: T1, IL-1Ra (interleukin-1 receptor alpha) (Homo sapiens, UniProt P14778); test: Binding ability of GI210B1 measured with Octet RED 384 (AR2G biosensor); settings: IL-1Ra 1 μg/ml coated on biosensor; GI210B1 15.6 nM to 1,000 nM
T1 construct: purchased R&D systems
T1 sequence (P14778 18-569): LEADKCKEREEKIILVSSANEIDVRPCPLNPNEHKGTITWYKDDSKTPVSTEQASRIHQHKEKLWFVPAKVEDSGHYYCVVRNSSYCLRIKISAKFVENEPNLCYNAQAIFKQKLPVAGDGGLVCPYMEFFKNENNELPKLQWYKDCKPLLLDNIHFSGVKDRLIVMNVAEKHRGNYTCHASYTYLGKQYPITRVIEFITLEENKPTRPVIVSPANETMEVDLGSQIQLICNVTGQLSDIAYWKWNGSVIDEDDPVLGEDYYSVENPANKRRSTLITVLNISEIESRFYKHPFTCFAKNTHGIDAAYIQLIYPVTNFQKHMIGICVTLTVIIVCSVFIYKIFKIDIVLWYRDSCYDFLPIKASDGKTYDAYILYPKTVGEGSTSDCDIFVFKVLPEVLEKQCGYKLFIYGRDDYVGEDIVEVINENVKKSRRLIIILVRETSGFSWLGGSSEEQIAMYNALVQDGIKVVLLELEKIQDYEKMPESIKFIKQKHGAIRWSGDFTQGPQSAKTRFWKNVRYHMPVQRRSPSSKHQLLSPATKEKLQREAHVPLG
Procedure: The binding ability of GI210B1, which was obtained through the method of Preparation Example 1 above, to IL-1Ra ([…]) was measured. At that time, the binding ability to IL-1Ra was confirmed using Octet RED 384 (ForteBio). The AR2G (amine reactive 2nd generation) biosensor was used by immersion in 1× kinetic buffer for 10 minutes. IL-1Ra (R&D systems) was prepared at a concentration of 1 μg/ml and coated on the biosensor, and the binding ability was confirmed at each concentration by serially diluting GI210B1 from 15.6 nM to 1,000 nM.

GI210B1: fusion protein dimer comprising GLP-1 (SEQ ID NO: 2), IgG4 Fc domain and IL-1Ra; SEQ ID NO: 10
recognition of a novel object, 24-hour-NOR experiment (Tg-APP/PS1 mice [1]): recognized a novel object for a longer time at a similar level to the normal group (WT)
time taken for the mouse to recognize an object whose location was changed, 2-hour-NLR experiment (Tg-APP/PS1 mice [1]): increased similar to the normal group
time taken for the mouse to recognize a novel object, 2-hour-NOR experiment (Tg-APP/PS1 mice [1]; tested at 7.5 to 8.0 months): increased similar to the normal group (WT)
number of DCX positive cells in the DG region of the hippocampus (Tg-APP/PS1 mice [2]): increased compared to the control group (Tg), and was recovered to a level similar to that of the normal group (WT)
expression level of MAP-2 in the CA1 region of the hippocampus (Tg-APP/PS1 mice [3]; Example 1, GI210B1 1.2 mg/kg intraperitoneal): recovered to the level of the normal group (WT)
expression level of MAP-2 in the CA1 region of the hippocampus (Tg-APP/PS1 mice [3]; Example 2, GI210B1, GI210B1C1, GI210B1CN at 1.2, 0.7778, 1.1745 mg/kg intraperitoneal): higher than that of the control group (Tg+Veh)
number of Ki-67 positive cells in the DG region of the hippocampus (Tg-APP/PS1 mice [4]): increased compared to the Tg-APP/PS1 mice (Tg), which was a level similar to that of the normal group (WT)
Ka(Association rate, 1/Ms) [5]: 22000 M⁻¹ s⁻¹
Kd(dissociation rate, 1/s) [5]: 0.0093 s⁻¹
